According to patent US8080580B2, “Dioxa-bicyclo[3.2.1]octane-2,3,4-triol derivatives” (Pfizer Inc., priority 2008, dated 2011):
Values joined by “and” are separate entries in the source; they are usually repeats but may differ in a detail not shown here. Equal entries are not always repeated.

How the values were obtained:
[1] = Pharmacokinetic testing in rats (IV or PO); assay type: in vivo; settings: rat, IV, 2 mg/kg
Description: Examples 1A, 2A, 4A, 12A, and 14A were tested in rats to assess pharmacokinetic parameters including maximum concentration (Cmax), area under the plasma concentration time curve (AUC), clearance (CL), steady state volume of distribution (Vss), half life (t1/2), and bioavailability (F). Male Sprague Dawley rats (˜300 g) were used. Rats received compound by intravenous (IV) or oral gavage (PO) administration and the doses tested including vehicle to formulate dosing solutions are listed in Table 5.
Following IV or PO administration, 0.2 mL blood was sampled from the jugular vein at various timepoints (Table 5). Twenty microL aliquots of plasma samples and standards were subjected to protein precipitation with acetonitrile containing an internal standard. Samples were vortexed and centrifuged to obtain supernatant which was analyzed by LC-MS/MS. Analyst (Version 1.4.1) was used to measure peak areas and peak area ratios of analyte to internal standard were calculated. LC-MS/MS conditions are as follows: Mass Spectrometer+Source Type was Sciex API 4000−Turbo Spray; HPLC pump was Shimadzu; Autosampler was CTC PAL Autosampler; Injection volume was 3.0 to 10 microL; A gradient was used with mobile phase A: 10 mM ammonium acetate and 1% Isopropyl alcohol in water; B: Acetonitrile; Flowrate 0.300 mL per minute (Column 2.0×30 mm 5 microm LUNA C18 column (phenomenex)). Detection mode was negative.
A calibration curve was constructed from the peak area ratios of the standards to the internal standard by applying a weighted linear (1/x or 1/x2) regression. The dynamic range of the standard curve was 5.00 ng/mL to 5000 ng/mL.
Pharmacokinetic parameters were determined from individual animal data using non-compartmental analysis in Watson (version 7.2). Concentrations below the limit of quantitation (BLQ) were recorded as 0 ng/mL for use in calculations.
The following calculations were used: AUC(0−τ)=Determined using the linear trapezoidal method AUC(0−□)=AUC(0−τ) plus extrapolated area determined by dividing plasma concentration at τ by the slope of the terminal log-linear phase CL=Dose/AUC(0−∞) Vdss=CL×MRT Cmax=Recorded directly from plasma concentration time curve Tmax=Recorded directly from plasma concentration time curve t½=ln(0.5)/slope of the terminal log-linear phase F %=AUC(0−∞)PO per dose/AUC(0−∞)IV per dose C(0)=Extrapolated by linear regression from the apparent distribution phase following IV administration MRT=AUMC(AUC(0−∞)/AUC(0−∞)

hSGLT1 = target: T1, hSGLT1 (Homo sapiens, UniProt P13866); experiment: SGLT1 functional assay: hSGLT1 IC50 (selectivity counter-screen to the SGLT2 AMG uptake assay); assay type: cell-based; settings: individual runs (Run No.)
T1 sequence (P13866 1-664): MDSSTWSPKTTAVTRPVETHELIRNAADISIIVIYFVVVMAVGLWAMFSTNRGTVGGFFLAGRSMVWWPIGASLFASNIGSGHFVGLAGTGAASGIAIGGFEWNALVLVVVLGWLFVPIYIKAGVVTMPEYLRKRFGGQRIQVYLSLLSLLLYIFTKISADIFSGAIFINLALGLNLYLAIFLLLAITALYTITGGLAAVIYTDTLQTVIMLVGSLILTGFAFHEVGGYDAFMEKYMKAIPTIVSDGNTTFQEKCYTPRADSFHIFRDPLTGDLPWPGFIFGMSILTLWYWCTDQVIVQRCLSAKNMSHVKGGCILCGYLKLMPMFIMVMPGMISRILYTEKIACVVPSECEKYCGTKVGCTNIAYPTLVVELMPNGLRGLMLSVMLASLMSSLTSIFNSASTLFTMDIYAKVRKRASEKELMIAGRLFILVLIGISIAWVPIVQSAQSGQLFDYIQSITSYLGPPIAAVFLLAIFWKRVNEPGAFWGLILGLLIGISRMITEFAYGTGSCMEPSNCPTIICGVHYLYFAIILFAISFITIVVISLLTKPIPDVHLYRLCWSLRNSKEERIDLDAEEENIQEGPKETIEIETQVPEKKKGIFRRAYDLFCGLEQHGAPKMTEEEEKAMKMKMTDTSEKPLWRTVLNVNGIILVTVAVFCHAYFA

human SGLT2 = target: T2, human SGLT2 (Homo sapiens, UniProt P31639); experiment: SGLT2 functional assay: inhibition of AMG uptake in CHO-FlpIn cells stably expressing human SGLT2; assay type: cell-based; settings: individual runs (Run No.), read-out: hSGLT2 IC50
T2 construct: expressed in transfected cells; host or cells: CHO-FlpIn (Invitrogen)
T2 sequence (P31639 1-672): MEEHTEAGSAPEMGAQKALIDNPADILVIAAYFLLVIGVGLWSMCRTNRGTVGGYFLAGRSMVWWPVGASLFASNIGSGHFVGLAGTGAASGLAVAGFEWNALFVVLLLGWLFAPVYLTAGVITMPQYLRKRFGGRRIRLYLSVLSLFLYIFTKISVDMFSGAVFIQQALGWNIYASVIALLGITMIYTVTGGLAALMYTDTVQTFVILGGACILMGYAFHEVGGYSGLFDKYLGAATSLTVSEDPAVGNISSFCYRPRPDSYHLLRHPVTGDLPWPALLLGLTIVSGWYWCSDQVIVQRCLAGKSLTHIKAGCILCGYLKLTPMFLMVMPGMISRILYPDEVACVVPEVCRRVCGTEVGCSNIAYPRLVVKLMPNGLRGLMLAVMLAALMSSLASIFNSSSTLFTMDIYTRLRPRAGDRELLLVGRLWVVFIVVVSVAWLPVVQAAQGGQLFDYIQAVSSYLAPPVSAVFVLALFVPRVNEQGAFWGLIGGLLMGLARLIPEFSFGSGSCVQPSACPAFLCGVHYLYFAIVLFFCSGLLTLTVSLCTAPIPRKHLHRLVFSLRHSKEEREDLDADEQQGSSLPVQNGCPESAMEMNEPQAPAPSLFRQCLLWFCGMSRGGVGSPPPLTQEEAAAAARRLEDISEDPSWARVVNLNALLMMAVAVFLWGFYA
Text: The SGLT2 functional assay was designed to detect the inhibition of methyl-alpha-D glucopyranoside (AMG—a non-metabolizable form of glucose) uptake via the SGLT2 transporter. The SGLT2 transporter recovers glucose from the proximal tubules of the kidney; its inhibition results in sugar wasted in the urine. The positive control compound, Phlorizin, is a known inhibitor of glucose uptake for SGLT2 and was used for comparing the high percent effect of SGLT2 inhibition of the test compounds.
CHO-FlpIn (Invitrogen, Carlsbad, Calif.) cells stably expressing human SGLT2 (pcDNA5/FRT) were plated in Iso-TC 96 well plates (Perkin Elmer, Waltham, Mass.) at a density of 100,000 cells/well in 100 microL of growth media (1:1 F-12/DMEM media (Gibco, Carlsbad, Calif.), 10% FBS (Sigma, St. Louis Mo.), 1× Pen/Strep (Gibco, Carlsbad, Calif.), 600 microg/mL Hygromycin (Invitrogen, Carlsbad, Calif.)). Prior to treating with test compound, confluent cells were serum starved for 2 hours at 37° C. in 1:1 F-12/DMEM media, replacing with fresh F-12/DMEM media after 1 hour. […] Cell plates were then incubated for 3 hours at 37° C. for AMG uptake.

| SMILES | IC50 (hSGLT1) | IC50 (human SGLT2) | other results |
| --- | --- | --- | --- |
| CCOc1ccc(Cc2cc([C@]34OC[C@](CO)(O3)[C@@H](O)[C@H](O)[C@H]4O)ccc2C)cc1 [Example 2A, (1S,2S,3S,4R,5S)-5-[3-(4-ethoxy-benzyl)-4-methyl-phenyl]-1-hydroxymethyl-6,8-dioxa-bicyclo[3.2.1]octane-2,3,4-triol] | 1.24 µM and > 1 µM and 0.679 µM | 0.000827 µM and 0.00153 µM and 0.000942 µM and 0.000741 µM and 0.00158 µM and 0.00105 µM | AUC(0-inf) ([1]; male, Sprague Dawley, plasma): 1340 ng·h/mL; CL [1]: 27.7 mL/min/kg; Vss [1]: 1.03 L/kg; t1/2 [1]: 0.94 h |
| COc1ccc(Cc2cc([C@]34OC[C@](CO)(O3)[C@@H](O)[C@H](O)[C@H]4O)ccc2Cl)cc1 [Example 3A, (1S,2S,3S,4R,5S)-5-[4-chloro-3-(4-methoxy-benzyl)-phenyl]-1-hydroxymethyl-6,8-dioxa-bicyclo[3.2.1]octane-2,3,4-triol] | 0.543 µM and 0.397 µM and 0.55 µM and 0.757 µM and 0.523 µM and 0.672 µM and 0.38 µM | 0.000479 µM and 0.000972 µM and 0.00139 µM and 0.000811 µM and 0.000602 µM and 0.000588 µM and 0.00135 µM | AUC(0-inf) ([1]; male, Sprague Dawley, plasma): 1410 ng·h/mL; half-life ([1]; male, Sprague Dawley, plasma): 1.58 h; CL [1]: 23.8 mL/min/kg; Vss [1]: 1.82 L/kg |
| COc1ccc(Cc2cc([C@]34OC[C@](CO)(O3)[C@@H](O)[C@H](O)[C@@H]4O)ccc2Cl)cc1 [Example 3B, (1S,2S,3S,4S,5S)-5-[4-chloro-3-(4-methoxy-benzyl)-phenyl]-1-hydroxymethyl-6,8-dioxa-bicyclo[3.2.1]octane-2,3,4-triol] | > 10 µM | 0.0416 µM and 0.0408 µM and 0.0279 µM and 0.0622 µM |  |
| CCOc1ccc(Cc2cc([C@]34OC[C@](CO)(O3)[C@@H](O)[C@H](O)[C@@H]4O)ccc2Cl)cc1 [Example 4B, (1S,2S,3S,4S,5S)-5-[4-chloro-3-(4-ethoxy-benzyl)-phenyl]-1-hydroxymethyl-6,8-dioxa-bicyclo[3.2.1]octane-2,3,4-triol] | > 10 µM | 0.122 µM and 0.0668 µM and 0.0817 µM |  |
| COc1ccc(Cc2cc([C@]34OC[C@](CO)(O3)[C@@H](O)[C@H](O)[C@H]4O)ccc2F)cc1 [Example 5A, (1S,2S,3S,4R,5S)-5-[4-fluoro-3-(4-methoxy-benzyl)-phenyl]-1-hydroxymethyl-6,8-dioxa-bicyclo[3.2.1]octane-2,3,4-triol] | > 10 µM and > 1 µM and 5.79 µM |  |  |
| COc1ccc(Cc2cc([C@]34OC[C@](CO)(O3)[C@@H](O)[C@H](O)[C@@H]4O)ccc2F)cc1 [Example 5B, (1S,2S,3S,4S,5S)-5-[4-fluoro-3-(4-methoxy-benzyl)-phenyl]-1-hydroxymethyl-6,8-dioxa-bicyclo[3.2.1]octane-2,3,4-triol] | > 10 µM | 0.186 µM |  |
| COc1ccc(Cc2cc([C@]34OC[C@](CO)(O3)[C@@H](O)[C@H](O)[C@H]4O)ccc2C#N)cc1 [Example 6A, 2-(4-methoxybenzyl)-4-((1S,2S,3S,4R,5S)-2,3,4-trihydroxy-1-(hydroxymethyl)-6,8-dioxa-bicyclo[3,2,1]oct-5-yl)-benzonitrile] | > 10 µM and > 1 µM and 8.93 µM | 0.0187 µM and 0.00999 µM and 0.0135 µM and 0.0134 µM and 0.00571 µM and 0.00767 µM |  |
| CCOc1ccc(Cc2cc([C@]34OC[C@](CO)(O3)[C@@H](O)[C@H](O)[C@H]4O)ccc2C#N)cc1 [Example 7A, 2-(4-ethoxybenzyl)-4-((1S,2S,3S,4R,5S)-2,3,4-trihydroxy-1-(hydroxymethyl)-6,8-dioxa-bicyclo[3,2,1]oct-5-yl)-benzonitrile] | > 10 µM | 0.0106 µM and 0.00638 µM and 0.00588 µM and 0.00611 µM |  |
| CCOc1ccc(Cc2cc([C@]34OC[C@](CO)(O3)[C@@H](O)[C@H](O)[C@H]4O)ccc2F)cc1 [Example 10A] | > 10 µM |  |  |
| CCOc1ccc(Cc2cc([C@]34OC[C@](CO)(O3)[C@@H](O)[C@H](O)[C@@H]4O)ccc2F)cc1 [Example 10B, (1S,2S,3S,4S,5S)-5-[3-(4-ethoxy-benzyl)-4-fluoro-phenyl]-1-hydroxymethyl-6,8-dioxa-bicyclo[3.2.1]octane-2,3,4-triol] | > 10 µM | 0.127 µM and 0.103 µM |  |
| OC[C@@]12CO[C@@](c3ccc(F)c(Cc4ccc(OC5CCOC5)cc4)c3)(O1)[C@H](O)[C@@H](O)[C@@H]2O (stereo partly drawn) [Example 11A, (1S,2S,3S,4R,5S)-5-{4-fluoro-3-[4-(tetrahydro-furan-3-yloxy)-benzyl]-phenyl}-1-hydroxymethyl-6,8-dioxa-bicyclo[3.2.1]octane-2,3,4-triol] | > 10 µM | 0.0096 µM and 0.0119 µM and 0.0198 µM and 0.00713 µM |  |
| OC[C@@]12CO[C@@](c3ccc(F)c(Cc4ccc(Cl)cc4)c3)(O1)[C@H](O)[C@@H](O)[C@@H]2O [Example 12A, (1S,2S,3S,4R,5S)-5-[3-(4-chlorobenzyl)-4-fluorophenyl]-1-hydroxymethyl-6,8-dioxabicyclo[3.2.1]octane-2,3,4-triol] | > 10 µM and 5.78 µM |  | AUC(0-inf) ([1]; male, Sprague Dawley, plasma): 2200 ng·h/mL; clearance ([1]; male, Sprague Dawley, plasma): 15.9 mL/min/kg; half-life ([1]; male, Sprague Dawley, plasma): 3.9 h; Vd ([1]; male, Sprague Dawley, plasma, read-out: Vss): 3.68 L/kg |
| OC[C@@]12CO[C@@](c3ccc(F)c(Cc4ccc(Cl)cc4)c3)(O1)[C@@H](O)[C@@H](O)[C@@H]2O [Example 12B, (1S,2S,3S,4S,5S)-5-[3-(4-chlorobenzyl)-4-fluorophenyl]-1-hydroxymethyl-6,8-dioxabicyclo[3.2.1]octane-2,3,4-triol] | > 3.16 µM | 0.0323 µM |  |
| OC[C@@]12CO[C@@](c3ccc(F)c(Cc4ccc(OC5COC5)cc4)c3)(O1)[C@H](O)[C@@H](O)[C@@H]2O [Example 13A, (1S,2S,3S,4R,5S)-5-{4-fluoro-3-[4-(oxetan-3-yloxy)-benzyl]-phenyl}-1-hydroxymethyl-6,8-dioxa-bicyclo[3.2.1]octane-2,3,4-triol] | > 10 µM | 0.0149 µM and 0.0178 µM |  |
